Laboratory results published in patent EP4060021A1, “MIMETIC MICROBIOLOGICAL CULTURE MEDIUM AND USES THEREOF” (BIOFILM PHARMA, priority 2021, dated 2022).

Experiments:
[1] = test system: souches de S. aureus issues de prélèvements de plaies du pied infectées chez des patients diabétiques; test: Antibiotic susceptibility test (MIC, 96-well microplate, OD 600 nm) in Mueller-Hinton medium (MH); format: cell-based; design: key to Classification (S) ou (R) en MH: S (sensible); R (résistante)
Excerpt: (§1) • La Figure 1 représente des courbes de croissance de bactéries en fonction du milieu de culture. Sur cette figure, les ordonnées correspondent au logarithme d'unités formant colonie par millilitre de milieu de culture (Log UFC/ml) et les abscisses, au temps en heure (H). La Figure 1A représente les courbes correspondant à la croissance de 2 souches de S. aureus, Newman (gauche) et SAC1 (droite), dans le milieu BHI (courbe avec indicateurs ronds) et un exemple de milieu selon l'invention (MP) (courbe avec indicateurs carrés). La Figure 1B représente les courbes correspondant à la croissance de 2 souches de P. aeruginosa, PAO1 (gauche) et PAC1 (droite), dans le milieu BHI (courbe avec indicateurs ronds) et un exemple de milieu selon l'invention (MP) (courbe avec indicateurs carrés). La Figure 1C représente les courbes correspondant à la croissance de 2 souches cliniques S. aureus SAC1 et P. aeruginosa PAC1, en coculture dans le milieu BHI (P. aeruginosa BHI ou S. aureus BHI) et un exemple de milieu selon l'invention (MP) (P. aeruginosa MP ou S. aureus MP). La mesure de différence significative, réalisée par le test de Student, entre les valeurs d'UFC/mL est exprimée, soit par (***) qui correspond à une p-value <0,001, soit par (**) qui correspond à une p-value <0,01. • La Figure 2 représente les résultats obtenus d'une détermination de l'adhésion et de la formation de biofilm par dénombrement à 24h. Sur cette figure, les ordonnées correspondent au logarithme d'unités formant colonie par millilitre de milieu de culture (Log UFC/ml). La Figure 2A représente un histogramme ou diagramme en bâton du nombre de bactéries dénombrées suite à des cultures séparées de souche S. aureus Newman (Newman), S. aureus SAC1 (SAC 1), P. aeruginosa PAO1 (PAO1) ou P. aeruginosa PAC1 (PAC1), pendant 24H dans un milieu BHI (BHI) (bâtons noirs) ou dans un exemple de milieu selon l'invention (MP) (bâtons gris). La Figure 2B montre sous forme d'histogramme le nombre de bactéries dénombrées suite à des co-cultures des souches de référence S. aureus Newman et P. aeruginosa PAO1 (PAO1/Newman), ainsi que du couple de souches cliniques S. aureus SAC1 et P. aeruginosa PAC1 (PAC 1/SAC1), pendant 24H dans un milieu BHI (BHI) (bâtons noirs) ou dans un exemple de milieu selon l'invention (MP) (bâtons gris). La mesure de différence significative, réalisée par le test de Student, entre les valeurs d'UFC est exprimée, soit par (***) qui correspond à une p-value <0,001, soit par (**) qui correspond à une p-value <0,01. • La Figure 3 représente les résultats obtenus d'une détermination de sensibilité à des antibiotiques de souches cliniques de S. aureus issues d'infections de plaies du pied chez le diabétique. Les données cliniques, anonymisées, nécessaires à l'interprétation des résultats, consistaient en l'antibiothérapie donnée au patient, ainsi que la qualification par les médecins hospitaliers d'un succès ou échec thérapeutique. La définition de succès ou échec thérapeutique est définie comme suit. Le patient commence et suit l'antibiothérapie prescrite et un deuxième prélèvement microbiologique est effectué lors du dernier jour de traitement de la 1ère antibiothérapie (± 2 jours). Ce prélèvement est utilisé pour déterminer la présence/absence du pathogène ciblé par l'antibiothérapie, S. aureus. Si ce prélèvement a montré la persistance d'un S. aureus, l'antibiothérapie est en échec. A l'inverse, en cas d'absence de S. aureus, l'antibiothérapie est associée à un succès thérapeutique. Les antibiogrammes ont été réalisés classiquement sur une durée de 18h ± 2h en accord avec les recommandations de l'EUCAST. Une gamme de l'antibiotique à tester a été réalisée. • La Figure 3A montre sous forme d'histogramme les résultats des CMI déduites d'antibiogrammes sur 11 souches testées en présence d'amoxicilline / clavulanate de potassium (commercialisé par exemple sous le nom d'Augmentin (marque déposée)).

[2] = test system: souches de S. aureus issues de prélèvements de plaies du pied infectées chez des patients diabétiques; test: Antibiotic susceptibility test (MIC, 96-well microplate, OD 600 nm) in wound medium of the invention (MP); format: cell-based
Excerpt: as §1

[3] = souche associée à un succès thérapeutique

## cotrimoxazole
[1]; souche C01P0 01
  CMI en milieu MH: 0,5 mg/L
  Classification (S) ou (R) en MH: (S)
[1]; souche C01P0 11
  CMI en milieu MH: 4 mg/L
  Classification (S) ou (R) en MH: (S)
[1]; souche C03P0 02
  CMI en milieu MH: 1 mg/L
  Classification (S) ou (R) en MH: (S)
[1]; souche C03P0 07
  CMI en milieu MH: 1 mg/L
  Classification (S) ou (R) en MH: (S)
[1]; [3]
  CMI dans le milieu MH: 4 mg/L
[2]; 3 souches associées à un échec thérapeutique
  CMI dans un exemple de milieu selon l'invention (MP): 16 mg/L
[2]; souche C01P0 01
  CMI en milieu plaie MP: 16 mg/L
  Classification (S) ou (R) en MP: (R) (valeur de CMI mesurée dans l'exemple de milieu selon l'invention supérieure au seuil et peuvent être classifiées comme résistantes (noté R dans le tableau 5B))
[2]; souche C01P0 11
  CMI en milieu plaie MP: 8 mg/L
  Classification (S) ou (R) en MP: (S) (avantageusement inférieur au seuil et peut être classifiée comme sensible (noté S dans le tableau 5B))
[2]; souche C03P0 02
  CMI en milieu plaie MP: 16 mg/L
  Classification (S) ou (R) en MP: (R) (valeur de CMI mesurée dans l'exemple de milieu selon l'invention supérieure au seuil et peuvent être classifiées comme résistantes (noté R dans le tableau 5B))
[2]; souche C03P0 07
  CMI en milieu plaie MP: 16 mg/L
  Classification (S) ou (R) en MP: (R) (valeur de CMI mesurée dans l'exemple de milieu selon l'invention supérieure au seuil et peuvent être classifiées comme résistantes (noté R dans le tableau 5B))
[2]; [3]
  CMI mesurée dans un exemple de milieu selon l'invention (MP): 8 mg/L
